Experiments:
[1] = cited from earlier work
Hela cells = test: Survival rate of Hela cells (MTT), ketone donors alone or with cisplatin; type: cell-based; details: 1 mM ketone donor with 0.3-3 μM of cisplatin, versus untreated group
Description: (§1) COS7 cells, that are a renal cytoblastoma, were used. Subconfluent cells were spread on 24-well plates at a density of 40,000 cells/cm^2 and cultured in Dulbecco's Modified Eagle Medium (D-MEM) containing 10% of inactivated fetal bovine serum for one hour. Various concentrations of ketone bodies (HB) and ketone ester (KE) were added to the culture medium of COS7 cells and cultured for 24 hours. After 24 hours of culturing, the culture medium was removed, and COS7 cells were cultured for two hours in PBS with 1 mg/ml of a chromogenic reagent 3-(4,5-dimethylthiazol-2-yl)-2,5-diphenyl tetrazolium bromide (MTT, Wako Pure Chemical Corporation).
(§2) After the culturing, cell lysis solution (50% formamide, 20% sodium dodecyl sulfate) was added and left for 24 hours. Thereafter, the absorbance at 540 nm was measured using an absorbance measurement device (Biorad microplate reader), and the measured absorbance was used to calculate survival rates of COS7 cells.

[2] = in vivo; cited from earlier work
COS7 cells = test: Survival rate of COS7 cells (MTT), ketone donors alone or with cisplatin; type: cell-based; details: 1 mM ketone donor added with cisplatin, versus untreated group
Description: as §1, §2

[3] = Ketone body concentration in the blood after a single ingestion in yogurt; type: in vivo; details: humans, 500 mg/kg of body weight in yogurt (200 g)
Description: PHB was extracted from OITC1261 by the method for purifying the powdered PHB shown in Example 2 (purity: 90%, weight-average molecular weight: 590,000). Ketone ester and PHB whose amounts were adjusted such that the intake thereof was 500 mg/kg of body weight were mixed uniformly in yogurt (200 g) and fed to humans. The ketone body concentration in the blood was measured using a ketone body value electrode (FS Precision ketone measurement electrode) of Precision Exceed (Abbott) every other hour. After ketone bodies were confirmed to be stable, plain yogurt was ingested.
The horizontal axis of the graph in FIG. 8 represents time. The vertical axis represents the ketone body concentration in the blood. Squares represent changes in the ketone body concentration in the blood over time in a group that ingested plain yogurt mixed with ketone ester. […]
The powdered PHB and ketone bodies whose amounts were adjusted such that the intake thereof was 500 mg, 300 mg, 100 mg, or 0 mg/kg of body weight were mixed uniformly in yogurt (200 g) and fed to humans. […] The ketone body concentration in the blood over time was measured using a ketone body value electrode (FS Precision ketone measurement electrode) of Precision Exceed (Abbott) every other hour. […]

Question: For `C[C@@H](O)CC(=O)O` [ketone bodies, (R)-3-β-hydroxybutyric acid], which “time in which ketone body concentration in the blood increases after ingestion” value ([1]; ketone bodies ingested) is on record?
Answer: within a few minutes

Question: And the “adjuvant effect on toxicity caused by cisplatin” value (Hela cells)?
Answer: significantly promoted the toxic effects due to cisplatin

Question: What about the “share of ketone bodies transferred to the brain” value [2] of the same compound?
Answer: 20-30%

Question: What about the “adjuvant effect on toxicity caused by cisplatin” value (COS7 cells) of the same compound?
Answer: significantly promoted the toxic effect caused by cisplatin

Question: Which “increase of the ketone body concentration in the blood” value ([1]; ketone ester ingested) does the source give for `C[C@@H](O)CCOC(=O)C[C@@H](C)O` [ketone ester, 3-hydroxybutyl-3-hydroxybutyric acid] here?
Answer: several mM in a few minutes

Question: And the “time after ingestion at which ketone body concentration in the blood returns to the original level” value [3]?
Answer: about five

From US20220133662A1, “ORAL DRUG, ADJUVANT CANCER THERAPY, AND PET THERAPEUTIC DIET” (priority 2019, published 2022)
